In PMC7265341, “Quantifying CDK inhibitor selectivity in live cells” (Nature Communications, 2020):
Where two headings read alike, the source gives them in different places.

Columns and labels:
CDK1/Cyclin E1 = CDK1/Cyclin E1 (Homo sapiens, UniProt P06493); assay: NanoBRET live-cell target engagement, CDK1-NanoLuc/Cyclin E1 in HEK-293; format: binding; details: 10µM
CDK2/Cyclin E1 = CDK2/Cyclin E1 (Homo sapiens, UniProt P24941); assay: NanoBRET live-cell target engagement, CDK2-NanoLuc/Cyclin E1 in HEK-293; format: binding; details: 10µM
CDK3/Cyclin E1 = CDK3/Cyclin E1 (Homo sapiens, UniProt Q00526); assay: NanoBRET live-cell target engagement, CDK3-NanoLuc/Cyclin E1 in HEK-293; format: binding; details: 10µM
CDK4/Cyclin D1 = CDK4/Cyclin D1 (Homo sapiens, UniProt P11802); assay: NanoBRET live-cell target engagement, NanoLuc-CDK4/Cyclin D1 in HEK-293; format: binding; details: 10µM
CDK4/Cyclin D1, sequence (P11802 whole entry): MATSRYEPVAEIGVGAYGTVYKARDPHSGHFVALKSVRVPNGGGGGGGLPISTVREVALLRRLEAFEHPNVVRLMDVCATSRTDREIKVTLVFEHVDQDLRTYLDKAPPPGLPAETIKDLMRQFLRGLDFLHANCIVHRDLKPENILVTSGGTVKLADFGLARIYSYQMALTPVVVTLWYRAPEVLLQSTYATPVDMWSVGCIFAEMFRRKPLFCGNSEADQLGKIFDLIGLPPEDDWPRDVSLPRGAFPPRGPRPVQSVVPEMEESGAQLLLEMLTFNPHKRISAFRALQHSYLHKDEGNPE
CDK4/Cyclin D1, sequence (P24385 whole entry partner): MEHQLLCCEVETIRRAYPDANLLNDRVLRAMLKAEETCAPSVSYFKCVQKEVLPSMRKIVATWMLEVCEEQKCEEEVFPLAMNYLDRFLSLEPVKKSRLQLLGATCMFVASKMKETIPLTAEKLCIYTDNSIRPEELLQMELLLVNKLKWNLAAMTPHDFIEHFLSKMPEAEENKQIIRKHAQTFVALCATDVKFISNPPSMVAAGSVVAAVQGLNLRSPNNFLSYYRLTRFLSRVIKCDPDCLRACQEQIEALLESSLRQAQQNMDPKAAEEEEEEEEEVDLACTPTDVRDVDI

CDK5/CDK5R1 = CDK5/CDK5R1 (Homo sapiens, UniProt Q00535); assay: NanoBRET live-cell target engagement, CDK5-NanoLuc/CDK5R1 in HEK-293; format: binding; details: 10µM
CDK5/CDK5R1, sequence (Q00535 whole entry): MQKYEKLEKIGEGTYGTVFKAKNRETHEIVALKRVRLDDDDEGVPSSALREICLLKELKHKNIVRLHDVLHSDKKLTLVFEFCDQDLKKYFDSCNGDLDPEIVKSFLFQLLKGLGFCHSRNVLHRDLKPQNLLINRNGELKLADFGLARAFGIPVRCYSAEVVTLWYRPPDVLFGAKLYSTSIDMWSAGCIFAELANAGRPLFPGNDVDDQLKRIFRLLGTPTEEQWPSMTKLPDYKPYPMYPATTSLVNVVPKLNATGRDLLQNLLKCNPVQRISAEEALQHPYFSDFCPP
CDK5/CDK5R1, sequence (Q15078 whole entry partner): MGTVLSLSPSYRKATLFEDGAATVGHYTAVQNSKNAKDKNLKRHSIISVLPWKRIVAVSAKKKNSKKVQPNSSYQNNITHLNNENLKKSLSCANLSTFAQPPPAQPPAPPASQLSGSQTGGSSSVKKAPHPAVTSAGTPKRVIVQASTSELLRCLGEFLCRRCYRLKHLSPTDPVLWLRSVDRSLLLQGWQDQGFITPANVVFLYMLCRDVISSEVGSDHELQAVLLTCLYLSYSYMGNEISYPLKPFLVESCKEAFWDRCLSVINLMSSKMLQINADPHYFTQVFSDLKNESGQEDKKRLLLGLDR

CDK6/Cyclin D1 = CDK6/Cyclin D1 (Homo sapiens, UniProt Q00534); assay: NanoBRET live-cell target engagement, NanoLuc-CDK6/Cyclin D1 in HEK-293; format: binding; details: 10µM
CDK6/Cyclin D1, sequence (Q00534 whole entry): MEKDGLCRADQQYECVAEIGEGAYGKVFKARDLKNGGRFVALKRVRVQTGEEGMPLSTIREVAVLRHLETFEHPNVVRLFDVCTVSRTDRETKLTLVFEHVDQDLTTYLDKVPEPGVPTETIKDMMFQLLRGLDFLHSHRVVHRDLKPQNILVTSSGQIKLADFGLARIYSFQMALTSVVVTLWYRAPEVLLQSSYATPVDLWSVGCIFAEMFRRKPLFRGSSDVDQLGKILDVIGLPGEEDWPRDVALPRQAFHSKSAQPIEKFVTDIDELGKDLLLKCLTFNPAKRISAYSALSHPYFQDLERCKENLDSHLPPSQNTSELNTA
CDK6/Cyclin D1, sequence (P24385 whole entry partner): as the sequence (P24385 whole entry partner) above

CDK7 = CDK7 (Homo sapiens, UniProt P50613); assay: NanoBRET live-cell target engagement, NanoLuc-CDK7 in HEK-293; format: binding; details: 10µM
CDK7, sequence (P50613 whole entry): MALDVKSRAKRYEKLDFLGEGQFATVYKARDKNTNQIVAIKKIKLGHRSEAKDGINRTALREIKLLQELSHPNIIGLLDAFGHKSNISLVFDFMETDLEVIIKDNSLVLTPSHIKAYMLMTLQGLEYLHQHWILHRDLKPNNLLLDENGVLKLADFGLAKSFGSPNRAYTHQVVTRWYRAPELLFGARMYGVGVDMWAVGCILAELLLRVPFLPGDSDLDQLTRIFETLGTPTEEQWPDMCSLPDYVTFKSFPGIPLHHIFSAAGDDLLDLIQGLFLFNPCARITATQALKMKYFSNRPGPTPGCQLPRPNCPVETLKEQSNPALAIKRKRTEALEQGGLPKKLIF

CDK8/Cyclin C = CDK8/Cyclin C (Homo sapiens, UniProt P49336); assay: NanoBRET live-cell target engagement, NanoLuc-CDK8/Cyclin C in HEK-293; format: binding; details: for IC50: read-out: CDK8/C IC50
CDK8/Cyclin C, sequence (P49336 whole entry): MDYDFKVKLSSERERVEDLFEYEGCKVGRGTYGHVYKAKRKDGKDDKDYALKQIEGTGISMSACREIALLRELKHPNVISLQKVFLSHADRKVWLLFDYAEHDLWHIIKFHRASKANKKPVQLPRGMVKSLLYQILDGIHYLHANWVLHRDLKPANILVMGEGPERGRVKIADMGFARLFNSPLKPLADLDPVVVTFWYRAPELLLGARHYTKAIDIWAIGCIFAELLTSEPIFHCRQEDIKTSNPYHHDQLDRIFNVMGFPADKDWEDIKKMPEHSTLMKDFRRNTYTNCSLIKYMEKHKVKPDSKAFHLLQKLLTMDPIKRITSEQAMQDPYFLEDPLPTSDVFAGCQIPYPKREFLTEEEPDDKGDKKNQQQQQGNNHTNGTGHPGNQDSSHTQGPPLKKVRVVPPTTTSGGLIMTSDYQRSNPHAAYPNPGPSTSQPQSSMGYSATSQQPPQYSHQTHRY
CDK8/Cyclin C, sequence (P24863 whole entry partner): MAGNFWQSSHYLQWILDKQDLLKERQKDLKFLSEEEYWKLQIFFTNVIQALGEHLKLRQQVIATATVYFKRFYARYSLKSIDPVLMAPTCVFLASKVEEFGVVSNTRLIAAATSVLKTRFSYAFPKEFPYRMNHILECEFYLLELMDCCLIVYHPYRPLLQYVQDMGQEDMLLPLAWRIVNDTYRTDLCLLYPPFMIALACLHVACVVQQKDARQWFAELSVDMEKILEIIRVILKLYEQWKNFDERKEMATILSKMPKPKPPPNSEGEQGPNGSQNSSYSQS

CDK9/Cyclin K = CDK9/Cyclin K (Homo sapiens, UniProt P50750); assay: NanoBRET live-cell target engagement, NanoLuc-CDK9/Cyclin K in HEK-293; format: binding; details: 10µM
CDK11A/Cyclin L2 = biological target: T1, CDK11A/Cyclin L2 (Homo sapiens, UniProt Q9UQ88); assay: NanoBRET live-cell target engagement, CDK11A-NanoLuc/Cyclin L2 in HEK-293; format: binding; details: 10µM
T1 sequence (Q9UQ88 1-783): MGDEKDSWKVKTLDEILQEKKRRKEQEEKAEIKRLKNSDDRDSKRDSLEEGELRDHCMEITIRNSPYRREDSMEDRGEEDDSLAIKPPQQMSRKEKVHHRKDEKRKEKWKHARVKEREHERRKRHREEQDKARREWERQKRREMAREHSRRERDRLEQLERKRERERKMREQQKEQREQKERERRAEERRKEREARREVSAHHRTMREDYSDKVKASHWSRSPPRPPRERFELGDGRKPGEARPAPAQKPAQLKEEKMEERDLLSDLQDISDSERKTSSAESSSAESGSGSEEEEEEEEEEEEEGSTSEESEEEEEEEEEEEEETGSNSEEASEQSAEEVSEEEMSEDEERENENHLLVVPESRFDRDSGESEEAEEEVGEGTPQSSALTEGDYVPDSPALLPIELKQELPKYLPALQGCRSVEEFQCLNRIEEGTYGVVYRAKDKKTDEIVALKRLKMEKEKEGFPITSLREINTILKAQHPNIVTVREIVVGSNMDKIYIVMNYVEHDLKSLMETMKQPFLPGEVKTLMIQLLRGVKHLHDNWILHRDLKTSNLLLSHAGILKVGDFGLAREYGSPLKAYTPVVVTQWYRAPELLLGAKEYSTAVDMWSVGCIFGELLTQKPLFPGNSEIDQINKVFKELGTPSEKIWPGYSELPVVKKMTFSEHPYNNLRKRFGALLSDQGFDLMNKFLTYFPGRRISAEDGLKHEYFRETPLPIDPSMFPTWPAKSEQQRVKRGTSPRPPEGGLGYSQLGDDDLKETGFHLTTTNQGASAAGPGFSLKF

CDK11B/Cyclin L2 = CDK11B/Cyclin L2 (Homo sapiens, UniProt P21127); assay: NanoBRET live-cell target engagement, CDK11B-NanoLuc/Cyclin L2 in HEK-293; format: binding; details: 10µM
CDK11B/Cyclin L2, sequence (P21127 1-782 isoform P21127-2): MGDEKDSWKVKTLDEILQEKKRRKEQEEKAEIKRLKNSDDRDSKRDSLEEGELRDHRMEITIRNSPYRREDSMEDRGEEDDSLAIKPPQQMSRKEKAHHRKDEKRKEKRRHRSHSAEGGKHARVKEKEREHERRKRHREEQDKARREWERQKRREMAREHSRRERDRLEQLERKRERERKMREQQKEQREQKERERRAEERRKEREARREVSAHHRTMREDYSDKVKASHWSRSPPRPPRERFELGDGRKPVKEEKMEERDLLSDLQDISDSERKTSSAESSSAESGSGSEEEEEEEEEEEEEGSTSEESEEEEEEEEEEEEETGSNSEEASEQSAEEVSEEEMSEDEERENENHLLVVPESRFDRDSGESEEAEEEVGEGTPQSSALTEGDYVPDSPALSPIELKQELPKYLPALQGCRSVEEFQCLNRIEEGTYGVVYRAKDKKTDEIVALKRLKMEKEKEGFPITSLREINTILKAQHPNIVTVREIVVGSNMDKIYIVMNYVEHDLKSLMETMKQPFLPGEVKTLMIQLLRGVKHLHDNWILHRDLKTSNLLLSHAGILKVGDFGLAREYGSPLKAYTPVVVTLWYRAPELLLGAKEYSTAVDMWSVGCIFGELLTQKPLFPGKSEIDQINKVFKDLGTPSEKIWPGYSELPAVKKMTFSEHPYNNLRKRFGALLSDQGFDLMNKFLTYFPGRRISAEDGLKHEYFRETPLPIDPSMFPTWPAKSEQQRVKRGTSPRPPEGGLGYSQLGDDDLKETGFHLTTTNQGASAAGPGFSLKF

CDK12/Cyclin K = CDK12/Cyclin K (Homo sapiens, UniProt Q9NYV4); assay: NanoBRET live-cell target engagement, CDK12-NanoLuc/Cyclin K in HEK-293; format: binding; details: 10µM
CDK13/Cyclin K = CDK13/Cyclin K (Homo sapiens, UniProt Q14004); assay: NanoBRET live-cell target engagement, CDK13-NanoLuc/Cyclin K in HEK-293; format: binding; details: 10µM
CDK14/Cyclin Y = CDK14/Cyclin Y (Homo sapiens, UniProt O94921); assay: NanoBRET live-cell target engagement, CDK14-NanoLuc/Cyclin Y in HEK-293; format: binding; details: 10µM
CDK15/Cyclin Y = CDK15/Cyclin Y (Homo sapiens, UniProt Q96Q40); assay: NanoBRET live-cell target engagement, NanoLuc-CDK15/Cyclin Y in HEK-293; format: binding; details: 10µM
CDK15/Cyclin Y, sequence (Q96Q40 whole entry): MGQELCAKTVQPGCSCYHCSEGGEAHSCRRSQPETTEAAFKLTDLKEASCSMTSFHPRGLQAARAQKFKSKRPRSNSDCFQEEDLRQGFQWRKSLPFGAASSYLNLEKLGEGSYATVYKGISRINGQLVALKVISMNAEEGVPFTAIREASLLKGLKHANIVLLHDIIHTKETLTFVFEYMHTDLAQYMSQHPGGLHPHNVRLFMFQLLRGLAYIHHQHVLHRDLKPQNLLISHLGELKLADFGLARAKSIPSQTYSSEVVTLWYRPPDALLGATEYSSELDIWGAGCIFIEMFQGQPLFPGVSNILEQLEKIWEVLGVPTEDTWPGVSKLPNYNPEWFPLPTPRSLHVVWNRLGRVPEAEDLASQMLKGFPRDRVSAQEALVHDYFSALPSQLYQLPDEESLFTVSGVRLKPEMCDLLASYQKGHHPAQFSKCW
CDK15/Cyclin Y, sequence (Q8ND76 whole entry partner): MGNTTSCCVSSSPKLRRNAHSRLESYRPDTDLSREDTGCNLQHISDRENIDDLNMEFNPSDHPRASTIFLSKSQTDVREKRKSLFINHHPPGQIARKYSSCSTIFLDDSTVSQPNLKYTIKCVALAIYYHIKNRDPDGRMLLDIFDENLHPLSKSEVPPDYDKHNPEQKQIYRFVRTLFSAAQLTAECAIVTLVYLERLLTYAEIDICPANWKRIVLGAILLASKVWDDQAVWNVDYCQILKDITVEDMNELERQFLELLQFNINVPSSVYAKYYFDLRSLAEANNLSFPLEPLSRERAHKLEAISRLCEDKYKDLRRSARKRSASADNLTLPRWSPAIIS

CDK16/Cyclin Y = CDK16/Cyclin Y (Homo sapiens, UniProt Q00536); assay: NanoBRET live-cell target engagement, CDK16-NanoLuc/Cyclin Y in HEK-293; format: binding; details: 10µM
CDK17/Cyclin Y = CDK17/Cyclin Y (Homo sapiens, UniProt Q00537); assay: NanoBRET live-cell target engagement, CDK17-NanoLuc/Cyclin Y in HEK-293; format: binding; details: 10µM
CDK18/Cyclin Y = CDK18/Cyclin Y (Homo sapiens, UniProt Q07002); assay: NanoBRET live-cell target engagement, CDK18-NanoLuc/Cyclin Y in HEK-293; format: binding; details: 10µM
CDK18/Cyclin Y, sequence (Q07002 whole entry): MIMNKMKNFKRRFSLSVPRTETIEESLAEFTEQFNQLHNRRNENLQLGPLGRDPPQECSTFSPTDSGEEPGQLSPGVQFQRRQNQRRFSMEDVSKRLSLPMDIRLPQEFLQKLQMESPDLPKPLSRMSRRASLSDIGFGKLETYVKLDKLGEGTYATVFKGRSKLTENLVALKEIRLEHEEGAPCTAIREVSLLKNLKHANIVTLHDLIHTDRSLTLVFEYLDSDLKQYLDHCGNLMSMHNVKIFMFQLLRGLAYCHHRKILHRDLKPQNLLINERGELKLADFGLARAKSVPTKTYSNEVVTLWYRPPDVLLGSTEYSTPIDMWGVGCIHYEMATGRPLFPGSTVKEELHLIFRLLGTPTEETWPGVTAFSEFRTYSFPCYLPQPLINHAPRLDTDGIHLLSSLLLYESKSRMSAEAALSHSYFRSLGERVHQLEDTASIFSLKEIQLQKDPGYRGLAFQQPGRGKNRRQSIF
CDK18/Cyclin Y, sequence (Q8ND76 whole entry partner): as the sequence (Q8ND76 whole entry partner) above

CDK20/Cyclin H = CDK20/Cyclin H (Homo sapiens, UniProt Q8IZL9); assay: NanoBRET live-cell target engagement, NanoLuc-CDK20/Cyclin H in HEK-293; format: binding; details: 10µM
CDK19/Cyclin C = CDK19/Cyclin C (Homo sapiens, UniProt Q9BWU1); assay: NanoBRET live-cell target engagement, NanoLuc-CDK19/Cyclin C in HEK-293
CDK10/Cyclin L2 = CDK10/Cyclin L2 (Homo sapiens, UniProt Q15131); assay: NanoBRET live-cell target engagement, CDK10-NanoLuc/Cyclin L2 in HEK-293; details: 10µM

Cc1c(Br)c(Br)c2c3c1nc(N1CCNCC1)n3CCC2.Cl [SEL 120-34A]
CDK1/E1 Inhibition at 10µM (%) (CDK1/Cyclin E1; average of experiments): 37.6%
CDK1/E1 Inhibition at 10µM (%) (CDK1/Cyclin E1; independent experiment 1): 21.0%
CDK1/E1 Inhibition at 10µM (%) (CDK1/Cyclin E1; independent experiment 2): 54.1%
CDK2/E1 Inhibition at 10µM (%) (CDK2/Cyclin E1; average of experiments): 22.7%
CDK2/E1 Inhibition at 10µM (%) (CDK2/Cyclin E1; independent experiment 1): 24.3%
CDK2/E1 Inhibition at 10µM (%) (CDK2/Cyclin E1; independent experiment 2): 21.2%
CDK3/E1 Inhibition at 10µM (%) (CDK3/Cyclin E1; average of experiments): 33.7%
CDK3/E1 Inhibition at 10µM (%) (CDK3/Cyclin E1; independent experiment 1): 26.5%
CDK3/E1 Inhibition at 10µM (%) (CDK3/Cyclin E1; independent experiment 2): 40.8%
CDK4/D1 Inhibition at 10µM (%) (CDK4/Cyclin D1; average of experiments): 37.4%
CDK4/D1 Inhibition at 10µM (%) (CDK4/Cyclin D1; independent experiment 1): 12.4%
CDK4/D1 Inhibition at 10µM (%) (CDK4/Cyclin D1; independent experiment 2): 62.4%
CDK5/CDK5R1 Inhibition at 10µM (%) (CDK5/CDK5R1; average of experiments): 46.5%
CDK5/CDK5R1 Inhibition at 10µM (%) (CDK5/CDK5R1; independent experiment 1): 31.2%
CDK5/CDK5R1 Inhibition at 10µM (%) (CDK5/CDK5R1; independent experiment 2): 61.8%
CDK6/D1 Inhibition at 10µM (%) (CDK6/Cyclin D1; average of experiments): 31.6%
CDK6/D1 Inhibition at 10µM (%) (CDK6/Cyclin D1; independent experiment 1): 10.1%
CDK6/D1 Inhibition at 10µM (%) (CDK6/Cyclin D1; independent experiment 2): 53.1%
CDK7 Inhibition at 10µM (%) (CDK7; average of experiments): 37.0%
CDK7 Inhibition at 10µM (%) (CDK7; independent experiment 1): 34.4%
CDK7 Inhibition at 10µM (%) (CDK7; independent experiment 2): 39.7%
CDK8/C Inhibition at 10µM (%) (CDK8/Cyclin C; average of experiments): 97.3%
CDK8/C Inhibition at 10µM (%) (CDK8/Cyclin C; independent experiment 1): 96.1%
CDK8/C Inhibition at 10µM (%) (CDK8/Cyclin C; independent experiment 2): 98.6%
IC50 (CDK8/Cyclin C; average (± SEM where n=3)): 75 nM
IC50 (CDK8/Cyclin C; independent experiment 1): 73 nM
IC50 (CDK8/Cyclin C; independent experiment 2): 77 nM
CDK9/K Inhibition at 10µM (%) (CDK9/Cyclin K; average of experiments): 71.2%
CDK9/K Inhibition at 10µM (%) (CDK9/Cyclin K; independent experiment 1): 54.9%
CDK9/K Inhibition at 10µM (%) (CDK9/Cyclin K; independent experiment 2): 87.6%
CDK11a/L2 Inhibition at 10µM (%) (CDK11A/Cyclin L2; average of experiments): 43.7%
CDK11a/L2 Inhibition at 10µM (%) (CDK11A/Cyclin L2; independent experiment 1): 31.1%
CDK11a/L2 Inhibition at 10µM (%) (CDK11A/Cyclin L2; independent experiment 2): 56.3%
CDK11b/L2 Inhibition at 10µM (%) (CDK11B/Cyclin L2; average of experiments): 38.1%
CDK11b/L2 Inhibition at 10µM (%) (CDK11B/Cyclin L2; independent experiment 1): 35.0%
CDK11b/L2 Inhibition at 10µM (%) (CDK11B/Cyclin L2; independent experiment 2): 41.2%
CDK12/K Inhibition at 10µM (%) (CDK12/Cyclin K; average of experiments): 44.4%
CDK12/K Inhibition at 10µM (%) (CDK12/Cyclin K; independent experiment 1): 40.8%
CDK12/K Inhibition at 10µM (%) (CDK12/Cyclin K; independent experiment 2): 48.0%
CDK13/K Inhibition at 10µM (%) (CDK13/Cyclin K; average of experiments): 36.8%
CDK13/K Inhibition at 10µM (%) (CDK13/Cyclin K; independent experiment 1): 29.4%
CDK13/K Inhibition at 10µM (%) (CDK13/Cyclin K; independent experiment 2): 44.2%
CDK14/Y Inhibition at 10µM (%) (CDK14/Cyclin Y; average of experiments): 26.1%
CDK14/Y Inhibition at 10µM (%) (CDK14/Cyclin Y; independent experiment 1): 21.7%
CDK14/Y Inhibition at 10µM (%) (CDK14/Cyclin Y; independent experiment 2): 30.4%
CDK15/Y Inhibition at 10µM (%) (CDK15/Cyclin Y; average of experiments): 37.3%
CDK15/Y Inhibition at 10µM (%) (CDK15/Cyclin Y; independent experiment 1): 38.3%
CDK15/Y Inhibition at 10µM (%) (CDK15/Cyclin Y; independent experiment 2): 36.3%
CDK16/Y Inhibition at 10µM (%) (CDK16/Cyclin Y; independent experiment 1): 51.2%
CDK16/Y Inhibition at 10µM (%) (CDK16/Cyclin Y; independent experiment 2): 12.7%
CDK17/Y Inhibition at 10µM (%) (CDK17/Cyclin Y; average of experiments): 38.7%
CDK17/Y Inhibition at 10µM (%) (CDK17/Cyclin Y; independent experiment 1): 45.5%
CDK17/Y Inhibition at 10µM (%) (CDK17/Cyclin Y; independent experiment 2): 32.0%
CDK18/Y Inhibition at 10µM (%) (CDK18/Cyclin Y; average of experiments): 39.4%
CDK18/Y Inhibition at 10µM (%) (CDK18/Cyclin Y; independent experiment 1): 47.0%
CDK18/Y Inhibition at 10µM (%) (CDK18/Cyclin Y; independent experiment 2): 31.9%
CDK20/H Inhibition at 10µM (%) (CDK20/Cyclin H; independent experiment 1): 7.8%
CDK20/H Inhibition at 10µM (%) (CDK20/Cyclin H; independent experiment 2): 31.3%
CDK19/C Inhibition at 10µM (%) (CDK19/Cyclin C; average of experiments): 99.2%
CDK19/C Inhibition at 10µM (%) (CDK19/Cyclin C; independent experiment 1): 96.4%
CDK19/C Inhibition at 10µM (%) (CDK19/Cyclin C; independent experiment 2): 102.0%
IC50 (CDK19/Cyclin C; read-out: CDK19/C IC50, independent experiment 1): 120 nM
IC50 (CDK19/Cyclin C; read-out: CDK19/C IC50, independent experiment 2): 140 nM
IC50 (CDK19/Cyclin C; read-out: CDK19/Y IC50, average (± SEM where n=3)): 130 nM
CDK10/L2 Inhibition at 10µM (%) (CDK10/Cyclin L2; average of experiments): 33.9%
CDK10/L2 Inhibition at 10µM (%) (CDK10/Cyclin L2; independent experiment 1): 26.3%
CDK10/L2 Inhibition at 10µM (%) (CDK10/Cyclin L2; independent experiment 2): 41.4%
